Experimental data as given in paper PMC10809383, “Synthesis and migrastatic activity of cytochalasin analogues lacking a macrocyclic moiety” (RSC Medicinal Chemistry, 2023).
“Also recorded” adds a separate entry of the source.

Assays:
[1] = tested on: HT1080 fibrosarcoma cells; test: Fluorescence microscopy of actin cytoskeleton (SPY650-FastAct time-lapse); type: cell-based; conditions: 10 μM, within 2 min of addition
Description: Next, we conducted experiments to assess the impact of compound 24, CytB (1) and CytD (2) on the actin cytoskeleton using fluorescence microscopy in HT1080 fibrosarcoma cells (Fig. 3). […] Therefore, we increased the concentration up to 50 μM.
HT1080 cells were seeded into 12-well glass bottom plate and stained with SPY650-FastAct™ following manufacturer's protocol. Untreated cells (control) were imaged every 20 s for 15 min using Leica TCS SP2 microscope (40×/0.6 dry objective). Afterwards, an inhibitor (compound 24 at 10 μM; 50 μM or compound 1 and 2 at 10 μM) was added into the same well and its effect was recorded for 15 min (20 s/image). All video recordings were analyzed using FiJi (Rasband, W.S., ImageJ, NIH, Bethesda, MD, USA).

[2] = tested on: human fibroblasts (MRC-5); test: WST-1 viability assay, MRC-5 cells; type: cell-based; conditions: MRC5, 72 h treatment, WST-1 assay, 2D culture, 0–50 μM
Description: (§1) In addition, the cytotoxic activity of compounds 17, 20, and 22–30 was assessed by the WST-1 viability assay using BLM (human melanoma) and MRC-5 (noncancerous human fibroblasts) cells growing in a monolayer (2D cultures, Table 2) after 72 h of treatment.
(§2) Human cells from melanoma (BLM) and human lung fibroblasts (MRC-5, Merck, USA) were used to evaluate in vitro cytotoxicity of the prepared compounds. The cells were maintained at the exponential phase of growth (passaging done by trypsin–EDTA solution) in DMEM and MEM, for BLM and MRC-5, respectively, with stable L-glutamine and supplemented with 10% fetal bovine serum (Thermo Fisher Scientific, USA). The cells were kept in an incubator at 37 °C, 5% CO2 in the atmosphere, and 95% humidity.
(§3) The compound cytotoxicity was determined by a WST-1 viability assay (Merck, USA). The amount of 5000 BLM and MRC-5 cells were seeded into individual wells of 96-well plates in 100 μL of cell cultivation media and maintained in an incubator for 16 h. After this period, the cells were treated with a concentration series (0–50 μM) of the tested compounds diluted in another 100 μL of cultivation media, which was added to the wells containing cells and incubated for 72 h. Then, BLM and MRC-5 cell viability was evaluated by WST-1 agent (5% v/v solution in phenol red-free DMEM media), i.e., the cell media was discarded and 100 μL of WST-1 solution was added. After 2 h incubation, the absorbance of formazan, derived from the WST-1 tetrazolium salt was determined spectrophotometrically at 450 nm (reference at 650 nm) by a UV-vis spectrophotometer (Bio-Rad, USA). Untreated cells, cells treated only with a vehicle, and cells treated with cytochalasin B (1) and D (2) served as controls. The measurement occurred in three independent repetitions each of which consisted of three technical replicates. The data were plotted as dose–response curves from which the half-maximal inhibitory concentrations (IC50) were calculated using AAT Bioquest.

[3] = tested on: human melanoma cells (BLM); test: WST-1 viability assay, BLM cells; type: cell-based; conditions: for IC50: Homo sapiens, 72 h treatment, WST-1 assay, 2D culture, 0–50 μM; for selectivity index (SI): MRC-5 versus BLM, 72 h, WST-1
Description: as §1, §2, §3

[4] = tested on: human melanoma cell line BLM; test: Spheroid invasion assay (migrastatic activity); type: cell-based; conditions: 24 h; for rel. spheroid area: 10 µM, BLM spheroids in collagen, DMSO control 1.02; for migrastatic activity (cell migration, in words): 10 μM, BLM spheroid invasion
Description: Compounds 17, 20, and 22–30 were screened for their migrastatic activity using a spheroid invasion assay with the human melanoma cell line BLM.[46] Spheroids were formed and subsequently treated with cytochalasin analogues at a concentration of 10 μM for 24 h. CytB (1) and CytD (2) served as reference compounds for comparison. There was no significant increase in cell migration observed for any of the compounds tested. […] However, the effect was less profound than that of the reference compounds 1 and 2.
The spheroid invasion assay was performed following a previously published protocol.[63] Briefly, BLM cells were grown as spheroids using 3D Petri Dish (Microtissues). After 2 days of spheroid formation, 1.5 mg mL^−1 collagen solution (rat tail, collagen type I) was prepared (1.5 mg mL^−1 rat-tail collagen, 1× DMEM, 1% (v/v) FBS) and added at the bottom of a 96-well plate. Spheroids were embedded into the collagen (one spheroid per well) and covered with another layer of the gel. Collagen was polymerized at 37 °C and subsequently overlaid with a cultivation medium. Images of spheroids were taken with Leica TCS SP2 microscope (5×/0.15 dry objective; LAS X Life Science Microscope software) immediately after their seeding into collagen and again after 24 h. The area of the spheroids at 0 and 24 h was measured using FiJi (Rasband, W.S., ImageJ, NIH, Bethesda, MD, USA). Cellular invasiveness was determined as an increase in spheroid area within 24 h. Three independent experiments were conducted with at least 8 spheroids analysed in each experiment. Statistical analysis was performed in GraphPad using one-way ANOVA. For numeric data and representative images from this assay, see ESI, ^† Table S1 and Fig. S1.
Table S1: Spheroid invasion assay with BLM cell line at 10 µM concentration, 24 h.
Figure S1: Representative images of BLM cell spheroid invasion assay with or without
inhibitor. Images were taken at 0 h and 24 h. using a Leica TCS SP2 microscope (5x/0.15
dry objective). DMSO (first column) was used as a control. Scale bar 500 µm.

[5] = target: T1, actin (Oryctolagus cuniculus, UniProt P68135); test: Actin polymerization assay (pyrene-actin, Actin Polymerization Biochem Kit); type: biochemical; conditions: 10 μM, in vitro
T1 construct: purchased Cytoskeleton, Inc, Denver, CO
Description: To further ascertain the compounds' interference with actin polymerization, the active compounds, along with CytB (1) as a positive control and compound 26 as a negative control, were subjected to an in vitro actin polymerization assay (Fig. 2B). […] This correlation between actin inhibitory activity and migrastatic effect underscores the pivotal role of actin polymerization inhibition in mediating the observed migrastatic activity.
Actin polymerization assay was performed using Actin Polymerization Biochem Kit™ (Cytoskeleton, Inc, Denver, CO) according to the manufacturer protocol. Briefly, 25 μL of G-buffer containing labelled pyrene-actin (0.4 mg mL^−1) and 2.48 μL of either DMSO (10 μM, control) or inhibitor (10 μM) was added in […] well plate. Actin polymerization was initiated by the addition of 2.48 μL of 10× actin polymerization buffer and analysed in time until fluorescent signal plateau was reached using a spectrophotometer (Infinite 200 PRO, Tecan Life Sciences, Tecan Group Ltd., Zürich, CHE). The fluorescence emission intensity of actin polymerization was measured at 420 nm and 360 nm was used as excitation wavelength. Statistical analysis was performed in GraphPad using one-way ANOVA. Measurements were performed in three independent repetitions each consisting of at least three technical replicates. For a representative graph from this assay, see ESI, ^† Fig. S2.

SMILES | effect on the actin cytoskeleton [1] | IC50 [2] [µM] | IC50 [3] [µM] | selectivity index (SI) [3] | rel. spheroid area [4] | inhibition of actin polymerization (in words) [5] | migrastatic activity (cell migration, in words) [4]
C=C1[C@@H](C)[C@H]2[C@H](Cc3ccccc3)NC(=O)[C@]23[C@H](OC(C)=O)/C=C/[C@@](C)(O)C(=O)[C@@H](C)C/C=C/[C@H]3[C@@H]1O [CytD (2), cytochalasin D, reference compound] | profound effect on the actin cytoskeleton | 2.36 ± 0.07 | 13.7 ± 1.2 | 0.17 | 0.23 |  | 
COC(=O)[C@@]12C(=O)N[C@@H](Cc3ccccc3)[C@@H]1[C@H](C)C(C)=C[C@@H]2CCCOCc1ccccc1 [Compound 20, Methyl (1S,3aR,4S,7S,7aR)-1-benzyl-4-(3-(benzyloxy)propyl)-6,7-dimethyl-3-oxo-1,2,3,4,7,7a-hexahydro-3aH-isoindole-3a-carboxylate] |  | 28.6 ± 1.86 | 28.4 ± 0.59 | 1.0 | 0.56 | inhibit actin polymerization | significant decrease in cell migration; also recorded: modest migrastatic activity
CC1=C[C@H](CCOCCc2ccccc2)[C@]2(CO)C(=O)N[C@@H](Cc3ccccc3)[C@@H]2[C@@H]1C [Compound 30, (3S,3aR,4S,7S,7aS)-3-Benzyl-7a-(hydroxymethyl)-4,5-dimethyl-7-(2-phenethoxyethyl)-2,3,3a,4,7,7a-hexahydro-1H-isoindol-1-one] |  | > 50 | > 50 |  | 0.50 | inhibit actin polymerization | significant decrease in cell migration; also recorded: modest migrastatic activity
COC(=O)[C@@]12C(=O)N[C@@H](Cc3ccccc3)[C@@H]1[C@H](C)C(C)=C[C@@H]2CCOCCc1ccc(Br)cc1 [Compound 17h, Methyl (1S,3aR,4S,7S,7aR)-1-benzyl-4-(2-(4-bromophenethoxy)ethyl)-6,7-dimethyl-3-oxo-1,2,3,4,7,7a-hexahydro-3aH-isoindole-3a-carboxylate] |  | > 50 | > 50 |  | 1.05 |  | 
C=C1[C@@H](C)[C@H]2[C@H](Cc3ccccc3)NC(=O)[C@]23OC(=O)/C=C/[C@H](O)CCC[C@@H](C)C/C=C/[C@H]3[C@@H]1O [CytB (1), cytochalasin B, reference compound] | profound effect on the actin cytoskeleton | 0.27 ± 0.01 | 26.2 ± 0.55 | 0.01 | 0.26 |  | 
COC(=O)[C@@]12C(=O)N[C@@H](Cc3ccccc3)[C@@H]1[C@H](C)[C@@](C)(O)[C@@H](O)[C@@H]2CCOCCc1ccccc1 [Compound 23a, Methyl (1S,3aS,4R,5S,6R,7S,7aR)-1-benzyl-5,6-dihydroxy-6,7-dimethyl-3-oxo-4-(2-phenethoxyethyl)octahydro-3aH-isoindole-3a-carboxylate] |  | 20.9 ± 2.38 | 9.41 ± 2.52 | 2.2 | 1.01 |  | 
COC(=O)[C@@]12C(=O)N[C@@H](Cc3ccccc3)[C@@H]1[C@H](C)C(C)=C[C@@H]2CCOCCc1cccc(F)c1 [Compound 17e, Methyl (1S,3aR,4S,7S,7aR)-1-benzyl-4-(2-(3-fluorophenethoxy)ethyl)-6,7-dimethyl-3-oxo-1,2,3,4,7,7a-hexahydro-3aH-isoindole-3a-carboxylate] |  | 31.9 ± 4.02 | 25.9 ± 2.97 | 1.2 | 0.96 |  | 
COC(=O)[C@@]12C(=O)N[C@@H](Cc3ccccc3)[C@@H]1[C@H](C)C(C)=C[C@@H]2CCOCCc1ccc(OC)cc1 [Compound 17b, Methyl (1S,3aR,4S,7S,7aR)-1-benzyl-4-(2-(4-methoxyphenethoxy)ethyl)-6,7-dimethyl-3-oxo-1,2,3,4,7,7a-hexahydro-3aH-isoindole-3a-carboxylate] |  | 40.5 ± 4.65 | 35.3 ± 4.75 | 1.1 | 1.14 |  | 
COC(=O)[C@@]12C(=O)N[C@@H](Cc3ccccc3)[C@@H]1[C@H](C)C(C)=C[C@@H]2CCOCCc1ccc([N+](=O)[O-])cc1 [Compound 17j, Methyl (1S,3aR,4S,7S,7aR)-1-benzyl-6,7-dimethyl-4-(2-(4-nitrophenethoxy)ethyl)-3-oxo-1,2,3,4,7,7a-hexahydro-3aH-isoindole-3a-carboxylate] |  | 34.7 ± 6.18 | 35.2 ± 2.51 | 1.0 | 1.12 |  | 
COC(=O)[C@@]12C(=O)N[C@@H](Cc3ccccc3)[C@@H]1[C@H](C)C(C)=C[C@@H]2CCOCCc1ccccc1 [Compound 17a, Methyl (1S,3aR,4S,7S,7aR)-1-benzyl-6,7-dimethyl-3-oxo-4-(2-phenethoxyethyl)-1,2,3,4,7,7a-hexahydro-3aH-isoindole-3a-carboxylate] |  | 30.5 ± 0.38 | 27.1 ± 1.24 | 1.1 | 1.21 |  | 
